Columns and labels:
[1] = Tissue distribution; assay type: in vivo, monkey
[2] = Tissue distribution; assay type: in vivo; settings: rat
Protocol: CEM-101 is well absorbed and distributed to the tissue. In the rat at 250 mg/kg/d, mean lung and liver concentrations 5 of CEM-101 were 17 and 15-fold higher than in plasma.

[3] = system: S. pneumoniae; assay: PK-PD analysis in neutropenic murine-lung infection model; assay type: in vivo; settings: neutropenic mice
Protocol: Using a murine-lung infection model, epithelial lining fluid (ELF) and plasma PK-PD measures most closely associated with CEM-101 efficacy against S. pneumoniae and targets based on PK-PD relationships for such indices were identified.
(§1) CEM-101 PK data were obtained from healthy mice administered single CEM-101 doses ranging from 0.625 to 40 mg/kg. Plasma and ELF were collected over 24 h (3 mice/time point) and assayed for CEM-101. Urea in plasma and ELF was used to correct ELF concentrations. Neutropenic mice infected with 10^8 CFU of 1 of 5 S. pneumoniae isolates via inhalation were administered daily CEM-101 doses (0.156 to 160 mg/kg) via oral gavage. Dose-fractionation was performed for 1 isolate; CEM-101 was administered to the other 4 isolates as a Q6h or Q12h regimen. PK and PK-PD were evaluated using S-ADAPT 1.56.

[4] = Intrapulmonary penetration into ELF and AM, Phase 1 clinical study; assay type: in vivo, healthy adult subjects; settings: 400 mg orally daily for 5 days, Day 5, 24 hour period
Protocol: CEM-101 is evaluated for the treatment of patients with community-acquired bacterial pneumonia. The penetration of CEM-101 into the epithelial lining fluid (ELF) and alveolar macrophages (AM) is assessed in a Phase 1 clinical study.
30 subjects received 400 mg of CEM-101 orally daily for 5 days. On Day 5, each subject underwent a single bronchoscopy and bronchoalveolar lavage at 1 of 5 time points (3, 6, 9, 12 or 24 h post-dose) to obtain ELF and AM samples (6 subjects/time point). Plasma samples were collected pre-dose on Days 1 to 5 and serially post-dose on Day 5 and 6. The samples collected were assayed for CEM-101 using LC/MS/MS. Urea in the plasma and ELF was used to correct the ELF CEM-101 concentrations. Noncompartmental pharmacokinetic (PK) analysis using the median concentrations at each time point was used to calculate Day 5 AUC0-24. In addition, a population PK model (PPM) was used to determine Day 5 AUC0-24 for each subject in plasma and ELF. Intrapulmonary penetration of CEM-101 into the ELF and AM was determined by dividing the Day 5 AUC0-24 of each matrix by the Day 5 plasma AUC0-24.

[5] = Rodent ADME studies using radiolabeled CEM-101; assay type: in vivo; settings: IV 20 mg/kg
Protocol: This relationship was confirmed in rodent ADME studies using radiolabeled CEM-101. […] After IV dosing at 20 mg/kg, the data was more variable and lung/plasma ratios of 17.6 for males and 6.2 for females were observed.

[6] = Tissue levels in repeat-dose toxicology studies; assay type: in vivo, rodents and non human primates; settings: repeated dosing
[7] = Protein binding; assay type: in vitro ADME; settings: mice
Excerpt: (§2) A 3-compartment model with a parallel first-order and capacity-limited clearance and a capacity-limited first pass effect with fitted lag-times best described the plasma and ELF data (r2=0.98 and 0.83 for observed vs fitted concentrations, respectively). ELF to total- and free-drug (f) plasma (based on protein binding of 91.8% in mice) AUC0-24 ratios were 0.22 and 2.7, respectively. ELF and f plasma AUC0-24:MIC ratios were most predictive of efficacy (r2=0.85 for ELF and f plasma). […] AUC0-24:MIC ratio was the PK-PD index most predictive of efficacy for CEM-101. PK-PD targets based on these relationships will inform dose selection for future clinical studies.

[8] = system: P. aeruginosa PSAR 461, PSAR 468; assay: Time-kill macrobroth MICs; assay type: cell-based
Protocol: (§3) Original MICs of each strain to CEM-101 and other comparators were tested by CLSI microdilution methodology. Trays were obtained from Trek, Inc., Cleveland, Ohio. Time-kill macrobroth MIC dilution by CLSI was performed for all synergy testing.
(§4) Two of the MRSA strains were chosen and tested for synergy, together with the 4 Gram-negative strains mentioned above. Broth macrodilution formed the basis of MICs used in time-kill experiments, as detailed below. The kill kinetics of each drug was tested alone by incubating an initial inoculum of 5×10^5 to 5×10^6 cfu/mL with drug concentrations at the MIC, three dilutions above and three dilutions below the MIC (½, ¼ and ⅛×MIC). Viability counts were performed after 0, 3, 6, 12 and 24 h incubation at 37° C. in a shaking water bath by plating onto trypticase soy-5% sheep blood agar plates.

[9] = system: B. cepacia BCEP 953, BCEP 954; assay: Time-kill macrobroth MICs; assay type: cell-based
Protocol: as §3, §4

[10] = system: B. cepacia strains from cystic fibrosis patients; assay: Macrobroth dilution MICs, CF strains; assay type: cell-based; settings: 2 B. cepacia strains from cystic fibrosis patients
Protocol: (§5) Two strains each of mucoid P. aeruginosa (both pyocyanin positive) and […] MRSA (only one strain with gold colonies) isolated from patients at a CF clinic were tested. Additionally, 2 B. cepacia strains were acquired, from Hershey Medical Center. All strains were identified by standard methods. Only one strain per patient was tested. MLVA was done on all strains to examine clonality, and confirmed that examination is not taking place on only one or a few clones. Strains will be stored in skim milk at −70° C. until use.
as §3

[11] = system: P. aeruginosa strains from cystic fibrosis patients; assay: Macrobroth dilution MICs, CF strains; assay type: cell-based; settings: 2 P. aeruginosa strains from cystic fibrosis patients
Protocol: as §5, §3

[12] = Plasma and ELF pharmacokinetics in healthy mice; assay type: in vivo
Protocol: as §1, §2

[13] = system: MRSA SA 2230, SA 2232; assay: Time-kill macrobroth MICs; assay type: cell-based, S. aureus
Protocol: as §3, §4

**Q.** For `CC[C@H]1OC(=O)[C@@](C)(F)C(=O)[C@H](C)[C@@H](O[C@@H]2O[C@H](C)C[C@H](N(C)C)[C@H]2O)[C@](C)(OC)C[C@@H](C)C(=O)[C@H](C)[C@H]2N(CCCCn3cc(-c4cccc(N)c4)nn3)C(=O)O[C@]12C` [CEM-101, solithromycin], which “heart concentration relative to plasma” value ([1]; monkey) is on record?
**A.** Its value is 54 fold.

**Q.** And the “liver concentration relative to plasma” value ([1]; monkeys, 200 mg/kg/d)?
**A.** The value was 711 fold.

**Q.** And the “lung concentration relative to plasma” value ([1]; monkeys, 200 mg/kg/d)?
**A.** Its value is 503 fold.

**Q.** And the “heart concentration relative to plasma” value [2]?
**A.** Its value is 5 fold.

**Q.** And the “mean liver concentration relative to plasma” value ([2]; 250 mg/kg/d)?
**A.** Its value is 15 fold.

**Q.** What about the “mean lung concentration relative to plasma” value ([2]; 250 mg/kg/d) of the same compound?
**A.** Its value is 17 fold.

**Q.** What about the “ELF AUC0-24:MIC ratio associated with 1-log 10 CFU reduction from baseline” value [3] of the same compound?
**A.** Its value is 15.1.

**Q.** What about the “ELF AUC0-24:MIC ratio associated with 2-log 10 CFU reduction from baseline” value [3] of the same compound?
**A.** The value was 59.8.

**Q.** What about the “ELF AUC0-24:MIC ratio associated with net bacterial stasis” value [3] of the same compound?
**A.** Its value is 1.26.

**Q.** What about the “f plasma AUC0-24:MIC ratio associated with 1-log 10 CFU reduction from baseline” value [3] of the same compound?
**A.** Its value is 6.31.

**Q.** And the “f plasma AUC0-24:MIC ratio associated with 2-log 10 CFU reduction from baseline” value [3]?
**A.** Its value is 12.8.

**Q.** What about the “f plasma AUC0-24:MIC ratio associated with net bacterial stasis” value [3] of the same compound?
**A.** The value was 1.65.

**Q.** And the “exposure in AM compared to plasma” value [4]?
**A.** Its value is greater than 180 times.

**Q.** And the “exposure in ELF compared to plasma” value [4]?
**A.** The value was greater than 8 times.

**Q.** What about the lung/plasma ratio ([5]; females) of the same compound?
**A.** Its lung/plasma ratio is 6.2.

**Q.** What about the lung/plasma ratio ([5]; males) of the same compound?
**A.** The lung/plasma ratio was 17.6.

**Q.** And the “tissues with highest concentrations” value [6]?
**A.** Its value is “highest in liver, spleen, lung, and salivary gland”.

**Q.** What about the protein binding [7] of the same compound?
**A.** The protein binding was 91.8%.

**Q.** What about the “Time-kill Macrobroth MIC” value ([8]; strain PSAR 461) of the same compound?
**A.** The value was 64.0 µg/mL.

**Q.** And the “Time-kill Macrobroth MIC” value ([8]; strain PSAR 468)?
**A.** The value was 32.0 µg/mL.

**Q.** What about the “Time-kill Macrobroth MIC” value ([9]; strain BCEP 953) of the same compound?
**A.** The value was 8.0 µg/mL.

**Q.** What about the “Time-kill Macrobroth MIC” value ([9]; strain BCEP 954) of the same compound?
**A.** Its value is 32.0 µg/mL.

**Q.** What about the “MIC Range” value [10] of the same compound?
**A.** The value was 8 to 32 µg/mL.

**Q.** And the “MIC Range” value [11]?
**A.** Its value is 64 µg/mL.

**Q.** What about the “ELF to total-drug plasma AUC0-24 ratio” value [12] of the same compound?
**A.** Its value is 0.22.

**Q.** What about the “ELF to free-drug (f) plasma AUC0-24 ratio” value ([12]; based on protein binding of 91.8%) of the same compound?
**A.** Its value is 2.7.

**Q.** And the “Time-kill Macrobroth MIC” value ([13]; strain SA 2230)?
**A.** Its value is 0.125 µg/mL.

**Q.** And the “Time-kill Macrobroth MIC” value ([13]; strain SA 2232)?
**A.** Its value is 0.125 µg/mL.

Source: patent publication US9861616B2, “Methods for treating respiratory diseases and formulations therefor” (priority 2013, dated 2018)
